Here are results for 26 molecules from US9701689B2, “Substituted pyridines and pyridazines as CCR10 receptor inhibitors” (KYOWA HAKKO KIRIN CO., LTD., priority 2012, dated 2017).

In the assay the target is T1, human CCR10 (Homo sapiens, UniProt P46092).
T1 construct: expressed in transfected cells; host or cells: KJMGER8 cells (Namalwa cell-derived line), beta-estradiol-induced; hCCR10G16 cells
T1 sequence (P46092 1-362): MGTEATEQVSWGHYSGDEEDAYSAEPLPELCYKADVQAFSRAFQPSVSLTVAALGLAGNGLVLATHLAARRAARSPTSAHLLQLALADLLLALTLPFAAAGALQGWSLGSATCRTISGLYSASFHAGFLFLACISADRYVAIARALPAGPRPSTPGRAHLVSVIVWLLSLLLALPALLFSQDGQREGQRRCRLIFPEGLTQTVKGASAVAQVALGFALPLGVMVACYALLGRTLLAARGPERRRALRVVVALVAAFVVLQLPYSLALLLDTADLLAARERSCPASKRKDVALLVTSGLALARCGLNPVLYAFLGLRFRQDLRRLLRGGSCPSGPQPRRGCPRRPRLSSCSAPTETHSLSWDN
In words: CCR10 antagonistic effect: calcium assay of human CCR10 (CTACK-induced increase of intracellular calcium in hCCR10G16 cells). It is filed as cell-based. Particulars: at a concentration of not more than 1000 nmol/L; human CCR10-expressing hCCR10G16 cells, 300 nmol/L CTACK added; read-out: inhibition of increase in the calcium ion concentration. In outline: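 KJMGER8-derived hCCR10G16 cells (CCR10 plus Gα16, induced 24 h with 10 nmol/L β-estradiol), Fluo-3 loaded, preincubated with compound 30 min at 37 °C. Stimulated with CTACK (300 nmol/L solution before addition); calcium read ~5 min by FDSS, max−min fluorescence; % inhibition vs control.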

A value given as a limit tells only on which side of the number the result lay.

As to `Cc1cccc(Oc2c(C(=O)N3CCC(c4ccc(F)cc4)CC3)cnc(S(=O)(=O)Nc3ccon3)c2C)c1` [Compound 249, 5-[4-(4-fluorophenyl)piperidine-1-carbonyl]-N-(isoxazol-3-yl)-3-methyl-4-(m-tolyloxy)pyridine-2-sulfonamide], the inhibition at up to 1 µM was at least 50%.
For `Cc1c(S(=O)(=O)Nc2ccn(C)n2)ncc(C(=O)N2CCC(c3ccc(F)cc3)CC2)c1NCc1ccccc1` [Compound 250, 4-(benzylamino)-5-[4-(4-fluorophenyl)piperidine-1-carbonyl]-3-methyl-N-(1-methyl-1H-pyrazol-3-yl)pyridine-2-sulfonamide], the inhibition at up to 1 µM is at least 50%.
`Cc1cc(NS(=O)(=O)c2ncc(C(=O)N3CCC(c4ccc(F)cc4)CC3)c(NCc3ccccc3)c2C)sn1` [Compound 251, 4-(benzylamino)-5-[4-(4-fluorophenyl)piperidine-1-carbonyl]-3-methyl-N-(3-methylisothiazol-5-yl)pyridine-2-sulfonamide]: the inhibition at up to 1 µM was at least 50%.
For `Cc1c(S(=O)(=O)Nc2ccon2)ncc(C(=O)N2CCC(c3ccc(F)cc3)CC2)c1Nc1cc(F)ccc1F` [Compound 252, 4-(2,5-difluorophenylamino)-5-[4-(4-fluorophenyl)piperidine-1-carbonyl]-N-(isoxazol-3-yl)-3-methylpyridine-2-sulfonamide] the value was at least 50%.
Turning to `Cc1c(S(N)(=O)=O)ncc(C(=O)N2CCN(c3ccc(F)cc3)C(=O)C2)c1NCc1ccccc1` [Compound 253, 4-(benzylamino)-5-[4-(4-fluorophenyl)-3-oxopiperazine-1-carbonyl]-3-methylpyridine-2-sulfonamide], the inhibition at up to 1 µM was at least 50%.
For `Cc1c(S(=O)(=O)Nc2ccon2)ncc(C(=O)N2CCC(c3ccc(F)cc3)CC2)c1Nc1cccc(F)c1F` [Compound 254, 4-(2,3-difluorophenylamino)-5-[4-(4-fluorophenyl)piperidine-1-carbonyl]-N-(isoxazol-3-yl)-3-methylpyridine-2-sulfonamide] the value was at least 50%.
As for `Cc1c(S(=O)(=O)Nc2ccon2)ncc(C(=O)N2CCC(c3ccc(F)cc3)CC2)c1Nc1ccccc1F` [Compound 255, 5-[4-(4-fluorophenyl)piperidine-1-carbonyl]-4-(2-fluorophenylamino)-N-(isoxazol-3-yl)-3-methylpyridine-2-sulfonamide], the figure is at least 50%; as for `N#Cc1cc(OC(F)(F)F)ccc1Nc1c(C(=O)N2CCC(c3ccc(F)cc3)CC2)cnc(S(N)(=O)=O)c1Cl` [Compound 256, 3-chloro-4-[2-cyano-4-(trifluoromethoxy)phenylamino]-5-[4-(4-fluorophenyl)piperidine-1-carbonyl]pyridine-2-sulfonamide], at least 50%; as for `N#Cc1ccc(C(F)(F)F)cc1Nc1c(C(=O)N2CCC(c3ccc(F)cc3)CC2)cnc(S(N)(=O)=O)c1Cl` [Compound 257, 3-chloro-4-[2-cyano-5-(trifluoromethyl)phenylamino]-5-[4-(4-fluorophenyl)piperidine-1-carbonyl]pyridine-2-sulfonamide], at least 50%.
Consider `Cc1c(S(=O)(=O)Nc2ccon2)ncc(C(=O)N2CCC(c3ccc(F)cc3)CC2)c1Nc1ccc(F)c(F)c1` [Compound 258, 4-(3,4-difluorophenylamino)-5-[4-(4-fluorophenyl)piperidine-1-carbonyl]-N-(isoxazol-3-yl)-3-methylpyridine-2-sulfonamide], for which the inhibition at up to 1 µM was at least 50%.
`Cc1c(S(=O)(=O)Nc2ccon2)ncc(C(=O)N2CCC(c3ccc(F)cc3)CC2)c1Nc1ccc(Br)cc1` [Compound 260, 4-(4-bromophenylamino)-5-[4-(4-fluorophenyl)piperidine-1-carbonyl]-N-(isoxazol-3-yl)-3-methylpyridine-2-sulfonamide]: the inhibition at up to 1 µM was at least 50%.
For `Cc1c(S(N)(=O)=O)ncc(C(=O)N2CCC3(CC2)COc2ccccc23)c1NCc1ccccc1` [Compound 261, 4-(benzylamino)-3-methyl-5-(2H-spiro[benzofuran-3,4′-piperidine]-1′-ylcarbonyl)pyridine-2-sulfonamide] the value was at least 50%; for `COC1(c2ccc(F)cc2)CCN(C(=O)c2cnc(S(N)(=O)=O)c(C)c2NCc2ccccc2)CC1` [Compound 262, 4-(benzylamino)-5-[4-(4-fluorophenyl)-4-methoxypiperidine-1-carbonyl]-3-methylpyridine-2-sulfonamide], at least 50%; for `Cc1ccc(Nc2c(C(=O)N3CCC(c4ccc(F)cc4)CC3)cnc(S(=O)(=O)Nc3ccon3)c2C)cc1C` [Compound 263, 4-(3,4-dimethylphenylamino)-5-[4-(4-fluorophenyl)piperidine-1-carbonyl]-N-(isoxazol-3-yl)-3-methylpyridine-2-sulfonamide], at least 50%.
For `Cc1cccc(Nc2c(C(=O)N3CCC(c4ccc(F)cc4)CC3)cnc(S(=O)(=O)Nc3ccon3)c2C)c1F` [Compound 264, 4-(2-fluoro-3-methylphenylamino)-5-[4-(4-fluorophenyl)piperidine-1-carbonyl]-N-(isoxazol-3-yl)-3-methylpyridine-2-sulfonamide] the value was at least 50%; for `Cc1c(S(=O)(=O)Nc2ccon2)ncc(C(=O)N2CCC(c3ccc(F)cc3)CC2)c1Nc1cccc(Cl)c1F` [Compound 265, 4-(3-chloro-2-fluorophenylamino)-5-[4-(4-fluorophenyl)piperidine-1-carbonyl]-N-(isoxazol-3-yl)-3-methylpyridine-2-sulfonamide], at least 50%.
As for `Cc1cc(NS(=O)(=O)c2ncc(C(=O)N3CCC(c4ccc(F)cc4)CC3)c(Nc3ccc(F)cc3C)c2C)sn1` [Compound 266, 4-(4-fluoro-2-methylphenylamino)-5-[4-(4-fluorophenyl)piperidine-1-carbonyl]-3-methyl-N-(3-methylisothiazol-5-yl)pyridine-2-sulfonamide], the figure is at least 50%; as for `Cc1cc(NS(=O)(=O)c2ncc(C(=O)N3CCC(c4ccc(F)cc4)CC3)c(Nc3cccc(F)c3)c2C)sn1` [Compound 267, 5-[4-(4-fluorophenyl)piperidine-1-carbonyl]-4-(3-fluorophenylamino)-3-methyl-N-(3-methylisothiazol-5-yl)pyridine-2-sulfonamide], at least 50%.
Take `COc1ccc(F)c(Nc2c(C(=O)N3CCC(c4ccc(F)cc4)CC3)cnc(S(=O)(=O)Nc3ccon3)c2C)c1` [Compound 268, 4-(2-fluoro-5-methoxyphenylamino)-5-[4-(4-fluorophenyl)piperidine-1-carbonyl]-N-(isoxazol-3-yl)-3-methylpyridine-2-sulfonamide]: the inhibition at up to 1 µM is at least 50%.
For `COc1cc(Nc2c(C(=O)N3CCC(c4ccc(F)cc4)CC3)cnc(S(=O)(=O)Nc3ccon3)c2C)ccc1F` [Compound 269, 4-(4-fluoro-3-methoxyphenylamino)-5-[4-(4-fluorophenyl)piperidine-1-carbonyl]-N-(isoxazol-3-yl)-3-methylpyridine-2-sulfonamide] the value was at least 50%.
For `Cc1c(S(=O)(=O)Nc2ccon2)ncc(C(=O)N2CCC(c3ccc(F)cc3)CC2)c1Nc1ccc(Cl)cc1F` [Compound 270, 4-(4-chloro-2-fluorophenylamino)-5-[4-(4-fluorophenyl)piperidine-1-carbonyl]-N-(isoxazol-3-yl)-3-methylpyridine-2-sulfonamide] the value was at least 50%; for `Cc1c(S(=O)(=O)Nc2ccon2)ncc(C(=O)N2CCC(c3ccc(F)cc3)CC2)c1Nc1cc(Cl)ccc1F` [Compound 271, 4-(5-chloro-2-fluorophenylamino)-5-[4-(4-fluorophenyl)piperidine-1-carbonyl]-N-(isoxazol-3-yl)-3-methylpyridine-2-sulfonamide], at least 50%; for `Cc1c(S(=O)(=O)Nc2ccon2)ncc(C(=O)N2CCC(c3ccc(F)cc3)CC2)c1Nc1cccc(F)c1Cl` [Compound 272, 4-(2-chloro-3-fluorophenylamino)-5-[4-(4-fluorophenyl)piperidine-1-carbonyl]-N-(isoxazol-3-yl)-3-methylpyridine-2-sulfonamide], at least 50%.
As for `Cc1c(S(=O)(=O)Nc2ccon2)ncc(C(=O)N2CCC(c3ccc(F)cc3)CC2)c1Nc1ccc(F)cc1Cl` [Compound 273, 4-(2-chloro-4-fluorophenylamino)-5-[4-(4-fluorophenyl)piperidine-1-carbonyl]-N-(isoxazol-3-yl)-3-methylpyridine-2-sulfonamide], the figure is at least 50%; as for `Cc1c(S(=O)(=O)Nc2ccon2)ncc(C(=O)N2CCC(c3ccc(F)cc3)CC2)c1Nc1cc(F)ccc1Cl` [Compound 274, 4-(2-chloro-5-fluorophenylamino)-5-[4-(4-fluorophenyl)piperidine-1-carbonyl]-N-(isoxazol-3-yl)-3-methylpyridine-2-sulfonamide], at least 50%.
Regarding `Cc1c(S(=O)(=O)Nc2ccon2)ncc(C(=O)N2CCC(c3ccc(F)cc3)CC2)c1Nc1cc(F)cc(F)c1F` [Compound 275, 5-[4-(4-fluorophenyl)piperidine-1-carbonyl]-N-(isoxazol-3-yl)-3-methyl-4-(2,3,5-trifluorophenylamino)pyridine-2-sulfonamide], the inhibition at up to 1 µM was at least 50%.
